# Data as given in patent US4175123A, “Amino-sugar derivatives, process for their preparation and pharmaceutical composition thereof” (Bayer Aktiengesellschaft, priority 1976, dated 1979).
# Experiments:
# [1] = test system: small intestine of fasting male Wistar rats (glucose absorption); experiment: In vitro method for the inhibition of glucose absorption (small intestine rings, D-glucose-14C); design: species or system rat (male Wistar); details: Rattus norvegicus, 2 min; 10 mg/ml; 2 minutes at 37° C., pH 7.4, D-glucose-14C 10 mg/ml
# Experimental: In vitro method for the inhibition of glucose absorption
# The upper part of the small intestine of fasting male Wistar rats is folded over and cut into rings about 3 mm wide. 10 of these rings (~150 mg moist weight) are incubated for 2 minutes at 37° C. in 5 ml of Krebs-Ringer bicarbonate buffer (pH 7.4) with D-glucose-^14 C (U) (10 mg/ml, 0.2 μCi/ml), with the addition of the active compounds. The washed and dried-off intestine rings are weighted, dissolved in 5 ml of Digestin (Merck)/isopropanol (1:1) and the radioactivity absorbed in the tissue is determined in a liquid scintillation counter. All values are corrected using the radioactivity absorbed in the tissue as D-mannitol-1-^14 C.
# In vitro inhibitions of the glucose absorption by some selected compounds (10 mg/ml): […]
# glucosidase [2] = experiment: Sucrose feeding test: postprandial blood sugar after oral sucrose + glucosidase inhibitor in fasting rats; format: in vivo, rat
# Experimental: (§1) The in vivo activity of the compound was tested on some examples using the experimental arrangement described in the following text.
# (§2) Oral administration of starch or sucrose causes a rise in the blood sugar in warm-blooded animals, provided that the carbohydrates are enzymatically degraded in the small intestine to monosaccharides. The inhibition of their enzymatic hydrolysis by glucosidase inhibitors causes a reduced rise in the blood sugar.
# (§3) In order to detect the action of glucosidase inhibitors, 6 fasting rats receive perorally, 1 g of broiled starch or 2.5 g of sucrose/kg in the form of an aqueous suspension or in the form of an aqueous solution (starch and sucrose control respectively). An equal number of rats receive the glucosidase inhibitor in the dose indicated, together with the same amount of the carbohydrate concerned. An equal volume of physiological sodium chloride solution is administered orally to a further six rats (control). After administration of the carbohydrate concerned±glucosidae inhibitor, the postprandial change in blood sugar is measured, at the times indicated, in blood from the postorbital venous plexus in an auto-analyser according to the method of W. S. Hoffmann [J biol. Chem 120, 51 (1937)].
# [3] = biological target: T1, intestinal disaccharidase complex (saccharase) (Sus scrofa, UniProt P56729); experiment: In vitro saccharase inhibition test; format: biochemical, pig; details: for specific inhibitory activity (saccharase inhibitor units per gram): pH 6.25, 37° C., 20 minutes, sucrose substrate
# T1 construct: both subunits cut from one SI precursor
# Source text: In vitro saccharase inhibition test
# The in vitro saccharase inhibition test makes it possible to determined the enzyme inhibitory activity of a sample by comparing the activity of the solubilised intestinal disaccharidase complex in the presence of the inhibitor with its activity in the absence (so-called 100% value) of the inhibitor. A virtually glucose-free (<100 ppm) saccharose is used here as the substrate, which determines the specificity of the inhibition test; the enzyme activity determination is based on the colorometric determination of liberated glucose by means of glucoseoxydase, peroxydase and 2,2-azino-di-[3-ethyl-benzthiazoline-6-sulphonate] (=ABTS) as the chromogen.
# A saccharase inhibitor unit (SIU) is defined as that inhibitory activity which reduces a given saccharolytic activity in a defined test batch by one unit (saccharase unit=SU); the saccharase unit is defined here as that enzyme activity which, under given conditions, in one minute splits 1 μmol of sucrose and thus leads to the liberation of 1 μmol each of glucose, which is determine in the test, and fructose, which is not detected in the test.
# The intestinal disaccharidase complex is obtained from pig's small intestine mucosa by trypsin digestion, precipitation from 66% ethanol at -20° C., taking up of the precipitate in 100 mM phosphate buffer of pH 7.0 and concluding dialysis against the same buffer.
# 100 μl of a dilution of the intestinal disaccharidase complex in 0.1 M maleate buffer of pH 6.25 are added to 10 μl of a sample solution which is diluted so that the extinction of the test batch is at least 10%, but not more than 25%, below that of the 100% value, and the mixture is pre-incubated for 10 minutes at 37° C. The dilution of the disaccharidase complex is to be adjusted to an activity of 0.05 SU/ml. […] In order to develop the colour, the mixture is incubated for 30 minutes at 37° C., after which it is diluted with 2 ml of tris buffer and measured photometrically at 420 nm against a reagent blank (with enzyme but without sucrose). […]
# glucosidase [4] = experiment: Starch feeding test: postprandial blood sugar after oral starch + glucosidase inhibitor in fasting rats; format: in vivo, rat; details: for Blood sugar ± standard deviation, 15 minutes: starch control 131 ± 7.2, fasting control 60 ± 4.2; for Blood sugar ± standard deviation, 30 minutes: starch control 113 ± 9.2, fasting control 62 ± 3.4
# Experimental: as §1, §2, §3
# [5] = 0.65 mg/kg perorally + 1 g starch/kg
# [6] = 0.92 mg/kg perorally + 1 g starch/kg
# T1 sequence (P56729 with tags, fused parts or gaps): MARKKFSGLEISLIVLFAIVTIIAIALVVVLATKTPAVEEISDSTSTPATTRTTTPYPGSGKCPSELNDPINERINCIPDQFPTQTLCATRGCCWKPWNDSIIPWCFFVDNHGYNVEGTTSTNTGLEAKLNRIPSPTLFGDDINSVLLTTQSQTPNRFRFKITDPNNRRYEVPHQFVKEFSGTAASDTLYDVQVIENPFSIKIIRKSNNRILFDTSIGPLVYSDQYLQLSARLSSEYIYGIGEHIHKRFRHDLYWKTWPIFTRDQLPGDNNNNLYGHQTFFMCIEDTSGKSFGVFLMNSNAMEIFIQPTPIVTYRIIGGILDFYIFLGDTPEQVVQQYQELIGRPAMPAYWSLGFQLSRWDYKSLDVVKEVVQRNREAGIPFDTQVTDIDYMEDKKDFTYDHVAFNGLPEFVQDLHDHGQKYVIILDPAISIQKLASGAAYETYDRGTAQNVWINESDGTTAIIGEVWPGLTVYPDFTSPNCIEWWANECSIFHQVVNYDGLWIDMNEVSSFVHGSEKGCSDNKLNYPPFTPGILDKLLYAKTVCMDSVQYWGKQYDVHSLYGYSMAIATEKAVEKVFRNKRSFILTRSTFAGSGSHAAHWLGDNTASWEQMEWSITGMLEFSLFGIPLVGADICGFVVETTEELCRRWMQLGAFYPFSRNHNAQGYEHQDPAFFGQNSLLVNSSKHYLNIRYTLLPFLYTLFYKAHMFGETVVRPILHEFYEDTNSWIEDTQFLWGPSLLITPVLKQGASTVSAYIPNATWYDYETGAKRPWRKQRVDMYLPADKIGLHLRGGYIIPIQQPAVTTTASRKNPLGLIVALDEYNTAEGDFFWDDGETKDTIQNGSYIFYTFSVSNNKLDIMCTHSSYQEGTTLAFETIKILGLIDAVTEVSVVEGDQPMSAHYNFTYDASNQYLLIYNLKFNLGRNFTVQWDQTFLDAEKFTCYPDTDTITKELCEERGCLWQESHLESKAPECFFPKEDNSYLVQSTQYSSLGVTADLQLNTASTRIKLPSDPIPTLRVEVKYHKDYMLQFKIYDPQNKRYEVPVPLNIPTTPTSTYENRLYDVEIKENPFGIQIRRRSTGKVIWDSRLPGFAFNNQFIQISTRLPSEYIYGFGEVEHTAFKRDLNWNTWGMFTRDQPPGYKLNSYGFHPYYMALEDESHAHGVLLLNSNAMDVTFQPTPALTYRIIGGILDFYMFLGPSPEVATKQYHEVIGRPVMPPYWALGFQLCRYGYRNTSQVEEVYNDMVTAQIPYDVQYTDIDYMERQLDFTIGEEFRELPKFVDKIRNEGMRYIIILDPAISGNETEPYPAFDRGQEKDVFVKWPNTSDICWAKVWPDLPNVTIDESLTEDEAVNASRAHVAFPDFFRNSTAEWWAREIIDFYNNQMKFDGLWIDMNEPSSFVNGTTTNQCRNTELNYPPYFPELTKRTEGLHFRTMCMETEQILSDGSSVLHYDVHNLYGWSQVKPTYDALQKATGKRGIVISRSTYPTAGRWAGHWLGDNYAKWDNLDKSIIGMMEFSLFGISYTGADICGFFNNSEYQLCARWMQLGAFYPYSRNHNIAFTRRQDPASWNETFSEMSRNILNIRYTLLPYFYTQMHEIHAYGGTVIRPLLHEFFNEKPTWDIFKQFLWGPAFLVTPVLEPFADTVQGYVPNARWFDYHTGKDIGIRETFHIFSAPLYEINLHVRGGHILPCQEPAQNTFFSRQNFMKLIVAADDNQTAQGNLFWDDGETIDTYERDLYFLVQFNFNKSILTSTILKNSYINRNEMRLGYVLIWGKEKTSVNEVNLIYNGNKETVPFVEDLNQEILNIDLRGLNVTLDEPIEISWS
smiles,measurement,setting,value
"C[C@H]1O[C@H](O[C@H]2[C@H](O)[C@@H](O)[C@@H](O[C@H]3[C@H](O)[C@@H](O)[C@H](Oc4ccc(C(C)(C)C)cc4)O[C@@H]3CO)O[C@@H]2CO)[C@H](O)[C@@H](O)[C@@H]1N[C@H]1C=C(CO)[C@@H](O)[C@H](O)[C@H]1O [Example 1, 9, p-tert-Butylphenyl-O-{C}-(1→4)-O-α-D-glcp-(1→4)-β-D glucopyranoside]",inhibition at 10000 µg/mL,[1],> 50%
same,"Blood sugar ± standard deviation, 15 minutes","glucosidase [2]; 3.0 mg/kg perorally + 2.5 g sucrose/kg, sucrose control 134 ± 13, fasting control 71 ± 3.7",85 ± 4.8 mg/dL
same,"Blood sugar ± standard deviation, 30 minutes","glucosidase [2]; 3.0 mg/kg perorally + 2.5 g sucrose/kg, sucrose control 116 ± 20, fasting control 70 ± 5.3",83 ± 7.9 mg/dL
same,"Blood sugar ± standard deviation, 45 minutes","glucosidase [2]; 3.0 mg/kg perorally + 2.5 g sucrose/kg, sucrose control 125 ± 8.6, fasting control 77 ± 5.5",88 ± 3.4 mg/dL
same,"Blood sugar ± standard deviation, 60 minutes","glucosidase [2]; 3.0 mg/kg perorally + 2.5 g sucrose/kg, sucrose control 112 ± 15, fasting control 78 ± 7.3",92 ± 9.4 mg/dL
"CCCCCCCCCCCCCCCCO[C@@H]1O[C@H](CO)[C@@H](O[C@H]2O[C@H](CO)[C@@H](O[C@H]3O[C@H](C)[C@@H](N[C@H]4C=C(CO)[C@@H](O)[C@H](O)[C@H]4O)[C@H](O)[C@H]3O)[C@H](O)[C@H]2O)[C@H](O)[C@H]1O [Example 4, 18, n-Hexadecyl-O-{C}-(1→4)-O-α-D-glcp-(1→4)-β-D-glucopyranoside]",inhibition at 10000 µg/mL,[1],> 50%
C[C@H]1O[C@H](O[C@H]2[C@H](O)[C@@H](O)[C@@H](O[C@H]3[C@H](O)[C@@H](O)C(O)O[C@@H]3CO)O[C@@H]2CO)[C@H](O)[C@@H](O)[C@@H]1N[C@H]1C=C(CO)[C@@H](O)[C@H](O)[C@H]1O (stereo partly drawn) [compound of the formula I (page 2) with m=0 and n=2],specific inhibitory activity (saccharase inhibitor units per gram),[3],"68,000 SIU/g"
"C[C@H]1O[C@H](O[C@H]2[C@H](O)[C@@H](O)[C@@H](O[C@H]3[C@H](O)[C@@H](O)[C@H](Oc4ccc(O)cc4)O[C@@H]3CO)O[C@@H]2CO)[C@H](O)[C@@H](O)[C@@H]1N[C@H]1C=C(CO)[C@@H](O)[C@H](O)[C@H]1O [Example 1, 8, p-Hydroxyphenyl-O-{C}-(1→4)-O-α-D-glcp-(1→4)-β-D- glucopyranoside]","Blood sugar ± standard deviation, 15 minutes",glucosidase [4]; [5],112 ± 9.9 mg/dL
same,"Blood sugar ± standard deviation, 30 minutes",glucosidase [4]; [5],109 ± 12 mg/dL
same,inhibition at 10000 µg/mL,[1],25 to 50%
same,"Blood sugar ± standard deviation, 15 minutes","glucosidase [2]; 0.65 mg/kg perorally + 2.5 g sucrose/kg, sucrose control 128 ± 8.0, fasting control 60 ± 4.6",112 ± 3.1 mg/dL
same,"Blood sugar ± standard deviation, 30 minutes","glucosidase [2]; 0.65 mg/kg perorally + 2.5 g sucrose/kg, sucrose control 133 ± 8.7, fasting control 64 ± 3.7",114 ± 6.3 mg/dL
same,"Blood sugar ± standard deviation, 45 minutes","glucosidase [2]; 0.65 mg/kg perorally + 2.5 g sucrose/kg, sucrose control 134 ± 6.1, fasting control 73 ± 7.1",119 ± 9.4 mg/dL
same,"Blood sugar ± standard deviation, 60 minutes","glucosidase [2]; 0.65 mg/kg perorally + 2.5 g sucrose/kg, sucrose control 119 ± 10, fasting control 66 ± 4.2",112 ± 4.3 mg/dL
C[C@H]1O[C@H](O[C@H]2[C@H](O)[C@@H](O)[C@@H](O[C@H]3[C@H](O)[C@@H](O)C(O)O[C@@H]3CO)O[C@@H]2CO)[C@H](O)[C@@H](O)[C@@H]1N[C@H]1C=C(CO)[C@@H](O)[C@H](O)[C@H]1O (stereo partly drawn) [compound with P+q=2],specific inhibitory activity (saccharase inhibitor units per gram),[3],"65,000 SIU/g"
"C[C@H]1O[C@H](O[C@H]2[C@H](O)[C@@H](O)[C@@H](O[C@H]3[C@H](O)[C@@H](O)[C@H](Oc4cccc(C(=O)O)c4)O[C@@H]3CO)O[C@@H]2CO)[C@H](O)[C@@H](O)[C@@H]1N[C@H]1C=C(CO)[C@@H](O)[C@H](O)[C@H]1O [Example 1, 5, m-Carboxyphenyl-O-{C}-(1→4)-O-α-D-glcp-(1→4)-β-D- glucopyranoside]",inhibition at 10000 µg/mL,[1],> 50%
C[C@H]1O[C@H](O[C@H]2[C@H](O)[C@@H](O)[C@@H](O[C@H]3[C@H](O)[C@@H](O)[C@@H](O[C@H]4[C@H](O)[C@@H](O)C(O)O[C@@H]4CO)O[C@@H]3CO)O[C@@H]2CO)[C@H](O)[C@@H](O)[C@@H]1N[C@H]1C=C(CO)[C@@H](O)[C@H](O)[C@H]1O (stereo partly drawn) [isomers with p=0 and q=3],in vitro sucrose inhibitory activity,[3]; isolated isomer,"19,000 SIU/g"
"C[C@H]1O[C@H](O[C@H]2[C@H](O)[C@@H](O)[C@@H](O[C@H]3[C@H](O)[C@@H](O)[C@H](Oc4ccc(C(=O)O)cc4)O[C@@H]3CO)O[C@@H]2CO)[C@H](O)[C@@H](O)[C@@H]1N[C@H]1C=C(CO)[C@@H](O)[C@H](O)[C@H]1O [Example 1, 7, p-Carboxyphenyl-O-{C}-(1→4)-O-α-D-glcp-(1→4)-β-D- glucopyranoside]","Blood sugar ± standard deviation, 15 minutes",glucosidase [4]; [6],121 ± 7.7 mg/dL
same,"Blood sugar ± standard deviation, 30 minutes",glucosidase [4]; [6],112 ± 4.3 mg/dL
same,inhibition at 10000 µg/mL,[1],25 to 50%
same,"Blood sugar ± standard deviation, 15 minutes","glucosidase [2]; 0.92 mg/kg perorally + 2.5 g sucrose/kg, sucrose control 128 ± 8.0, fasting control 60 ± 4.6",110 ± 3.4 mg/dL
same,"Blood sugar ± standard deviation, 30 minutes","glucosidase [2]; 0.92 mg/kg perorally + 2.5 g sucrose/kg, sucrose control 133 ± 8.7, fasting control 64 ± 3.7",118 ± 14 mg/dL
same,"Blood sugar ± standard deviation, 45 minutes","glucosidase [2]; 0.92 mg/kg perorally + 2.5 g sucrose/kg, sucrose control 134 ± 6.1, fasting control 73 ± 7.1",112 ± 10 mg/dL
same,"Blood sugar ± standard deviation, 60 minutes","glucosidase [2]; 0.92 mg/kg perorally + 2.5 g sucrose/kg, sucrose control 119 ± 10, fasting control 66 ± 4.2",117 ± 9.0 mg/dL
